In patent US20070054940A1, “Remedy for down's syndrome” (EISAI CO., LTD., priority 2003, published 2007):
Structures can show the parent of a compound that is named as a salt.

How the values were obtained:
Down's syndrome = details: in vivo; cited from earlier work
[1] = Blood concentration in the patient with rapid retrogression; details: human, in vivo; 2 mg/day oral, house visit after 2 months
Experimental: It was confirmed that the subject was spontaneously getting up in the morning with extreme regularity. In addition, in daily activities the patient was sorting laundry, and before administration could not fold one piece in 30 minutes, but after administration could process 10 to 20 pieces in 10 minutes, and was approaching the level prior to the symptoms of rapid retrogression. Furthermore, the patient was able to spontaneously take medicine without the instruction of a parent. […] The blood concentration was 13.7 ng/mL.

[2] = system: human children with Down's syndrome; details: 25 human children with Down's syndrome; cited from earlier work
[3] = system: Down's syndrome model mouse; details: cited from earlier work

N[C@@H](Cc1c[nH]c2ccc(O)cc12)C(=O)O [5-hydroxytryptophan]
Development of motor skills, language skills, intelligence, or socialization (Down's syndrome): no efficacy was seen

COc1cc2c(cc1OC)C(=O)C(CC1CCN(Cc3ccccc3)CC1)C2 (stereo not shown) [donepezil hydrochloride]
concentration at 2 months [1]: 13.7 ng/mL

NC(=O)CN1CCCC1=O [piracetam]
Cognitive function [2]: no improvement in cognitive function was seen
Cognitive function [3]: an effect in improving cognitive function was seen
